The assay has as its target T1, TRPV3 (Homo sapiens, UniProt Q8NET8).
T1 sequence (Q8NET8 1-790): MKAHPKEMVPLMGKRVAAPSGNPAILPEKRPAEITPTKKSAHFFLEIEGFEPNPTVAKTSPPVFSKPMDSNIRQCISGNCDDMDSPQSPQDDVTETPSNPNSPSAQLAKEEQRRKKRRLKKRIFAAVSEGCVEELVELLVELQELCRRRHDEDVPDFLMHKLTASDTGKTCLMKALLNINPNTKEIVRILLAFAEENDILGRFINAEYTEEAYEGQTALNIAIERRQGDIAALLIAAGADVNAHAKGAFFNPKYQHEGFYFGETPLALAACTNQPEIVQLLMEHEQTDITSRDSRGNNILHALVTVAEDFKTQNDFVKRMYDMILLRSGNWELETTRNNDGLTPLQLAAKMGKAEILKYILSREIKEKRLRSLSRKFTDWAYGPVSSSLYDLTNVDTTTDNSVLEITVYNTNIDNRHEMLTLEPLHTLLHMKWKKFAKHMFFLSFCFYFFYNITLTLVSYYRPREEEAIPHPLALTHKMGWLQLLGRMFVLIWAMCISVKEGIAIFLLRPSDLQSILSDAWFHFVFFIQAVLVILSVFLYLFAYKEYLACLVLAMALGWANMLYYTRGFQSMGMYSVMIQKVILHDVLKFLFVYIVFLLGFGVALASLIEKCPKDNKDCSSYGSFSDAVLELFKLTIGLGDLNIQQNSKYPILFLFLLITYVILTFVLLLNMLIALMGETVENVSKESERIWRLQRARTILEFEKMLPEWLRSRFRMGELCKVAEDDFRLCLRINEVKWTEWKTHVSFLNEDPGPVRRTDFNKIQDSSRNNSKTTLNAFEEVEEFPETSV
Nature of the assay: Fura-2 calcium imaging, carvacrol-induced Ca2+ increase in hTRPV3-overexpressing HEK 293T cells. In kind it is cell-based. Also noted: expressed in transfected cells. Particulars: 300 µM carvacrol; for ∆(F340/F380): control 0.424 ± 0.032. How it is done: Since the TRPV3-mediated calcium influx is reported to contribute to proper skin function, we investigated whether alpha-mangostin inhibits the intracellular calcium increase induced by carvacrol in hTRPV3-overexpressing HEK 293T cells and keratinocytes. […] In hTRPV3-overexpressing HEK 293T cells, ∆(F340/F380) decreased by approximately 25% and 70% upon exposure to 0.3 µM and 3 µM alpha-mangostin, respectively (Figure 3A, 0.424 ± 0.032 vs. 0.316 ± 0.030 and 0.144 ± 0.006, respectively).
Figure 3 Alpha-mangostin (α-MG) inhibited TRPV3-mediated intracellular calcium increase. Cells were perfused with solutions containing 0.3 µM, 3 µM alpha-mangostin or 10 µM 74a before the addition of 300 µM carvacrol (red, green, and blue lines, respectively). Cells only perfused with normal Tyrode (NT) solution in the presence (black line) or absence (purple line) of 300 µM carvacrol were employed as the control. (A) Alpha-mangostin inhibited TRPV3-mediated intracellular calcium increase in response to carvacrol in TRPV3-overexpressing HEK 293T cells. […] The bar graph on the bottom summarizes the change in the intracellular calcium rise inhibited by alpha-mangostin. (B) Alpha-mangostin inhibited TRPV3-mediated intracellular calcium increase in response to carvacrol in normal human epidermal keratinocytes (NHEK). […] The bar graph on the bottom summarizes the change in the intracellular calcium rise inhibited by alpha-mangostin. Data are presented as means ± SEM. ** p < 0.01, *** p < 0.001, **** p < 0.0001.
Fura-2 AM (Thermo Fisher Scientific) was utilized as a fluorescent indicator to measure calcium signal, as described previously. Fura-2 acetoxymethyl ester (Fura-2 AM) is a widely used fluorescent calcium indicator. After crossing the cell membrane and entering the cytosol, Fura-2 AM is cleaved into its activated form, Fura-2 [49]. After binding to the cytosolic free Ca^2+, the peak excitation of Fura-2 shifts from 380 nm (Ca^2+-free state) to 340 nm (Ca^2+-bound state), while the peak emission remains unchanged at around 510 nm. To measure the cytosolic Ca^2+ level, a sequential excitation of Fura-2 is performed at 340 nm and 380 nm; then, the emission signals resulting from each excitation wavelength are measured and the ratio of these signals is calculated. […] Samples were excited using a wavelength of 380 nm for 20 ms, followed by 340 nm for 100 ms, and fluorescence at 510 nm was recorded. Recorded data were then analyzed using NIS-Element AR Version 5.00.00 (Nikon Instruments, Melville, NY, USA).
The change in the fluorescence ratio when the cells were excited at 340 nm and 380 nm (ΔF340/380) during the measurements was calculated by subtracting the ratio obtained at the beginning of the experiment from each subsequent ratio obtained at different time points. […]

Take `COc1c(O)cc2oc3cc(O)c(CC=C(C)C)c(O)c3c(=O)c2c1CC=C(C)C` [Alpha-mangostin]: where the note is “0.3 µM”, the “Decrease of ∆(F340/F380)” value is “approximately 25%” and the “∆(F340/F380)” value turned out to be 0.316 ± 0.030. Further, under “3 µM”, the “Decrease of ∆(F340/F380)” value is listed as roughly 70% and the “∆(F340/F380)” value was 0.144 ± 0.006.

The record behind these values is article PMC10455244, “Alpha-Mangostin: A Potent Inhibitor of TRPV3 and Pro-Inflammatory Cytokine Secretion in Keratinocytes” (International Journal of Molecular Sciences, 2023).
